From patent US20150045387A1, “Bi-Aromatic And Tri-Aromatic Compounds As NADPH Oxidase 2 (Nox2) Inhibitors” (The University of Surrey, priority 2011, published 2015)

Tested on: human liver hepatocyte cells (HepG2 cells)
Test: MTT assay for cytotoxicity, HepG2
Assay type: cell-based
Conditions: HepG2, LMH001 5 and 10 μM, 24 h
Protocol: FIG. 8 is a graph showing no cytotoxicity of LMH001 on living mouse microvascular endothelial cells (SVEC4-10 cells) and human liver hepatocyte cells (HepG2 cells), assessed by means of an MTT assay. Cells were cultured with LMH001 (5 and 10 μM) for 24 h. MTT is a yellow tetrazolium reagent which can be converted by living cells to insoluble blue formazan crystal in the medium. The insoluble blue formazan crystals were then dissolved in DMSO and measured for absorbance at 570 nm by a plate reader. Higher absorbance corresponds to more living cells. Results are presented as mean±SD (n=3).
HepG2 is a human hepatocytic cell line (ATCC No. HB-8065) that was originally derived from liver tissue with a well differentiated hepatocellular carcinoma. HepG2 cells have been proven to be a suitable in vitro model system for the study of human hepatocytes, and the study of liver metabolism and toxicity. HepG2 cells were grown in DMEM, containing 10% (v/v) heat inactivated foetal calf serum, 100 U/mL penicillin and […] streptomycin, in a humidified atmosphere at 37° C. with 5% CO2.
The potential cytotoxicity of LMH001 on cultured endothelial cells (SVEC4-10) and liver cells (HepG2) was assessed using the MIT assay as described previously (16). […] Absorbance was measured at 570 nm in an ELISA plate reader and the mean of 3 blank readings was subtracted from each corrected value.

Question: Which “cytotoxicity, MTT absorbance at 570 nm” value does the source give for `O=C(OCc1cccc(O)c1O)c1ccc(O)c(CO)c1` [LMH001, (2,3,-dihydroxyphenyl)methyl 4-hydroxy-3-(hydroxymethyl)benzoate] here?
Answer: no significant difference
